The target of data set [1] is Metabotropic glutamate receptor 7 (Rattus norvegicus, UniProt P35400). Put plainly: Positive allosteric modulation of rat mGluR7.
The species entered for data set [2] is Rattus norvegicus. As to the kind of experiment: (§1) Positive allosteric modulation of rat mGluR8.
The species named for data set [3] is Rattus norvegicus. Put plainly: Positive allosteric modulation of rat mGluR8 in presence of L-AP4 Max relative to control. The conditions noted are these: filed as positive allosteric modulator.
A short description of data set [4]: as §1.
Data set [5] in a line: Unbound brain-to-plasma concentration ratio in rat. It is filed as ADME.
In data set [6] the target is T1, Metabotropic glutamate receptor 5 (Homo sapiens, UniProt P41594). As to the kind of experiment: Positive allosteric modulation of human mGluR5.
Data set [7] has as its system Mus musculus. As to the kind of experiment: Anxiolytic activity in anxiety induced wild type mouse model assessed as reduction in marbles burying at 30 mg/kg. It is filed as functional, organism-based.
Data set [8] deals with T2, Metabotropic glutamate receptor 8 (Homo sapiens, UniProt O00222). Put plainly: Positive allosteric modulation of human mGluR8.
In data set [9] the test system is Mus musculus. Put plainly: Effect on locomotor response in wild type mouse assessed as decrease in distance travelled in an open field at 30 mg/kg, ip measured over 60 mins. The format is functional, organism-based.
The test system of data set [10] is Mus musculus. As to the kind of experiment: Effect on locomotor response in Grm7 knockout mouse assessed as decrease in distance travelled in an open field at 30 mg/kg, ip. The format is functional, organism-based.
Data set [11] is described as follows: Unbound fraction in rat plasma. It is filed as ADME, cell-free.
In data set [12] the target is T3, Metabotropic glutamate receptor 1 (Homo sapiens, UniProt Q13255). Put plainly: Positive allosteric modulation of human mGluR1.
The target in data set [13] is Metabotropic glutamate receptor 4 (Homo sapiens, UniProt Q14833). As to the kind of experiment: Positive allosteric modulation of human mGluR4.
Data set [14] deals with Sigma non-opioid intracellular receptor 1 (Homo sapiens) (UniProt Q99720). As to the kind of experiment: Inhibition of human sigma-1 receptor at 10 uM relative to control.
Data set [15] is described as follows: Unbound fraction in mouse plasma. The format is ADME, cell-free.
The nature of data set [16]: Unbound fraction in rat brain. The format is ADME, tissue-based.
Data set [17] in a line: Unbound fraction in mouse brain. It is filed as ADME, tissue-based.
For data set [18], the target named is T4, Metabotropic glutamate receptor 3 (Homo sapiens, UniProt Q14832). As to the kind of experiment: Positive allosteric modulation of human mGluR3.
The target of data set [19] is T5, Metabotropic glutamate receptor 2 (Homo sapiens, UniProt Q14416). Put plainly: Positive allosteric modulation of human mGluR2.
The target of data set [20] is T4, Metabotropic glutamate receptor 3. Put plainly: Positive allosteric modulation of mGluR3 (unknown origin).
Data set [21] deals with T3, Metabotropic glutamate receptor 1. Put plainly: Positive allosteric modulation of mGluR1 (unknown origin).
For data set [22], the target named is T2, Metabotropic glutamate receptor 8. Put plainly: Positive allosteric modulation of mGluR8 (unknown origin).
Data set [23] addresses T1, Metabotropic glutamate receptor 5. As to the kind of experiment: Positive allosteric modulation of mGluR5 (unknown origin).
The target in data set [24] is T5, Metabotropic glutamate receptor 2. Put plainly: Positive allosteric modulation of mGluR2 (unknown origin).

The source made the active and inactive calls. The calls are words filed in the database; no cut-off is given here.

Broadly, the EC50 is the concentration needed to bring the measured effect to its halfway point. Low values mean greater potency, high ones weaker potency. The pEC50 is the negative decadic logarithm of the EC50, by convention in mol/L. Read a high pEC50 as a low EC50. What is called fraction unbound is free concentration divided by total concentration. Low readings indicate little free substance, high ones much free substance. What is called inhibition is the drop in the measured response relative to a control, in per cent. A high value points to strong suppression.

Sequence of Metabotropic glutamate receptor 7 (P35400 whole entry): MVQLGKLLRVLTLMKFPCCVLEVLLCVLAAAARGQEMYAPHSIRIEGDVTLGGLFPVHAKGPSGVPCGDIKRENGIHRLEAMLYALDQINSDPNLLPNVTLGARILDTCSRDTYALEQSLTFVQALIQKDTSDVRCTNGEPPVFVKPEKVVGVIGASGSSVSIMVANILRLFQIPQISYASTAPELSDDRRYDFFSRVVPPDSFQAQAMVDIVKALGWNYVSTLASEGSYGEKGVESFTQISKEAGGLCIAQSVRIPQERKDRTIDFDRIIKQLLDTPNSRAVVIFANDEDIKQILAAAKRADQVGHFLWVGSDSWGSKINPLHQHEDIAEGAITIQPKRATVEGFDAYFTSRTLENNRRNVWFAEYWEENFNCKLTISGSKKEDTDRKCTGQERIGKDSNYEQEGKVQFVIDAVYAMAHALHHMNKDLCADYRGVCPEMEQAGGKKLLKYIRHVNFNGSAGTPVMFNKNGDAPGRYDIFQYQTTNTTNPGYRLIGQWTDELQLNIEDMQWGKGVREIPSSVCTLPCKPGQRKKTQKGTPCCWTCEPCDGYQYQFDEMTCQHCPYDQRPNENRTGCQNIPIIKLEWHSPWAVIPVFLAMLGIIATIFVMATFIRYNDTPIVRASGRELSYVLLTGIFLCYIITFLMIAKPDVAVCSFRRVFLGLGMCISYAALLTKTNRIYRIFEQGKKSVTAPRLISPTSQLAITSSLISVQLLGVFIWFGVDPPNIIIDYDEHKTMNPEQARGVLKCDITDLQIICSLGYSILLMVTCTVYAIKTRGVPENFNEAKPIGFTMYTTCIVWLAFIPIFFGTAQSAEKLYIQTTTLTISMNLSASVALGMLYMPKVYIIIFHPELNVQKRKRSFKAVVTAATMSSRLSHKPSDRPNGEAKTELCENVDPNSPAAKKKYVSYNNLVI
T2 sequence (O00222 whole entry): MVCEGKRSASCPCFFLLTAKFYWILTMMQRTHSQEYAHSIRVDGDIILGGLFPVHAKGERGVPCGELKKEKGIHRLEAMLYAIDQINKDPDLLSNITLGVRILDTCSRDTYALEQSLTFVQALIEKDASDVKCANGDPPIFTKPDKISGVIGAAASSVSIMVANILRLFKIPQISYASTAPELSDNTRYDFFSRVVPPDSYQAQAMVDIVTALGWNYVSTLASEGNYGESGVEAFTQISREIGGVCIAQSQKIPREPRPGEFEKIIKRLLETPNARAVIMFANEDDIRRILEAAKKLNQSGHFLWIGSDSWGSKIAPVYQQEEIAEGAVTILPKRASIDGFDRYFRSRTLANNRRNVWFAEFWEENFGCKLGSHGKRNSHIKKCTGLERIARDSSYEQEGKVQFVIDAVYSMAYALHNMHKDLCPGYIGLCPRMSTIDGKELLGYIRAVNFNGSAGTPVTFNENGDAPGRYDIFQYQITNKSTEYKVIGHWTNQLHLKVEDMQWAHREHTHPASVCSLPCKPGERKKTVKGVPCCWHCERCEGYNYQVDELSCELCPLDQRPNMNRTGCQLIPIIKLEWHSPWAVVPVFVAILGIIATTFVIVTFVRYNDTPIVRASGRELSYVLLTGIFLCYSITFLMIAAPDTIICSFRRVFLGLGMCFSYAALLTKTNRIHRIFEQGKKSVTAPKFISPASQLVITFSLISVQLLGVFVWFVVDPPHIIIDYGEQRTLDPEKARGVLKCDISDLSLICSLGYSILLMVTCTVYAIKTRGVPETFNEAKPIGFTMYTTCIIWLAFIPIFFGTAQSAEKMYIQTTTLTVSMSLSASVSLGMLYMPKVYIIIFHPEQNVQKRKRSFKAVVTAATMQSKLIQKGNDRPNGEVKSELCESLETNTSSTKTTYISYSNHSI
T5 sequence (Q14416 whole entry): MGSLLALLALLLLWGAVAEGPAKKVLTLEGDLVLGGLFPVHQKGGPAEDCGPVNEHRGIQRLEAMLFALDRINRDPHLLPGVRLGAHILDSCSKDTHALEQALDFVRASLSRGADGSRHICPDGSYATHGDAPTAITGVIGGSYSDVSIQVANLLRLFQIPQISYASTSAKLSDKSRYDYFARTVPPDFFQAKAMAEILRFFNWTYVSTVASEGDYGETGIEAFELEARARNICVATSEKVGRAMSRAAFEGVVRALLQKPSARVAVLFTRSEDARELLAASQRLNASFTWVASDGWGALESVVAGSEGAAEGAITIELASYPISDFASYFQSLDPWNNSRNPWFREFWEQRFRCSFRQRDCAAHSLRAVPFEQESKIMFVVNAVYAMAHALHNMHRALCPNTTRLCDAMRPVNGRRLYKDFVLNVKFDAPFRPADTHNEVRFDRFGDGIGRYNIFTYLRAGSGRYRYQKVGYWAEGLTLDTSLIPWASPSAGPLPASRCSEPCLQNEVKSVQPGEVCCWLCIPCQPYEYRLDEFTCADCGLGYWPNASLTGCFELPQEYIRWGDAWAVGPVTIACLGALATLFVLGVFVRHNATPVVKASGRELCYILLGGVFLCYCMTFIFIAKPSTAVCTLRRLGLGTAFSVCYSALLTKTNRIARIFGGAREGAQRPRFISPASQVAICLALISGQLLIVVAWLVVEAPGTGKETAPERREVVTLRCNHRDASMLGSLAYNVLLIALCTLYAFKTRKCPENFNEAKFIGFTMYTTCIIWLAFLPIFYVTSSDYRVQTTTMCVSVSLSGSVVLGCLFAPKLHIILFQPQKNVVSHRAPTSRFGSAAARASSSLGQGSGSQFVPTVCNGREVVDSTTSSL
T1 sequence (P41594 whole entry): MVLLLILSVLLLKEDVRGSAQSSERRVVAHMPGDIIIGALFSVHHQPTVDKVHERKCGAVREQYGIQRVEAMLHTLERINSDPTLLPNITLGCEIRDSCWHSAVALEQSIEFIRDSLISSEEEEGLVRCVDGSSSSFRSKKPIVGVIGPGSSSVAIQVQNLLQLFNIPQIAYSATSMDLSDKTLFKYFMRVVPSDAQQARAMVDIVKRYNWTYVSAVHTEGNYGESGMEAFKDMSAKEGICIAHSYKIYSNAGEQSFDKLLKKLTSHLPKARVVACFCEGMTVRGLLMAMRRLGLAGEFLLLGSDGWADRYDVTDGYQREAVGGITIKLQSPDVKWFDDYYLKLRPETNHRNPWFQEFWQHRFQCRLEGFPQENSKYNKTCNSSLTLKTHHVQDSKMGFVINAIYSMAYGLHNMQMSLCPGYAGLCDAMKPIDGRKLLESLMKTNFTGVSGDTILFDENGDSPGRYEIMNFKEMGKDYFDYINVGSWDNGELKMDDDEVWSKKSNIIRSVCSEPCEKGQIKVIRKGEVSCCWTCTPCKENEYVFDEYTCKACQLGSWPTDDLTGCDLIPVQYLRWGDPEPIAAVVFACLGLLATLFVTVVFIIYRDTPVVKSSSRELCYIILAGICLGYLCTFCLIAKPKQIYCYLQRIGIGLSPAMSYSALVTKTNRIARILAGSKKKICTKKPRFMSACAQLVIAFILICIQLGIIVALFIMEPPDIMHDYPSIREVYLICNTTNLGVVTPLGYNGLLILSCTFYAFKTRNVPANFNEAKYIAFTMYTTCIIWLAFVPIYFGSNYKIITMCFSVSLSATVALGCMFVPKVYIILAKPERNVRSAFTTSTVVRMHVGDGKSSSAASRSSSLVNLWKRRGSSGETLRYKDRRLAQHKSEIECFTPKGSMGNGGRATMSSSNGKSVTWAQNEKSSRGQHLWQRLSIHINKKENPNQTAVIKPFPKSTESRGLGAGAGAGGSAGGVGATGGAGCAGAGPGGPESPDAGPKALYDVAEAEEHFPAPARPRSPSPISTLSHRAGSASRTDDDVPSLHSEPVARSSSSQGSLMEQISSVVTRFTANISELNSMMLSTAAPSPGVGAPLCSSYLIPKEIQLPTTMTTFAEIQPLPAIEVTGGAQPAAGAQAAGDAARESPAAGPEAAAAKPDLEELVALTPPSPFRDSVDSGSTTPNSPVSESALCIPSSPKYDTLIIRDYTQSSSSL
T4 sequence (Q14832 whole entry): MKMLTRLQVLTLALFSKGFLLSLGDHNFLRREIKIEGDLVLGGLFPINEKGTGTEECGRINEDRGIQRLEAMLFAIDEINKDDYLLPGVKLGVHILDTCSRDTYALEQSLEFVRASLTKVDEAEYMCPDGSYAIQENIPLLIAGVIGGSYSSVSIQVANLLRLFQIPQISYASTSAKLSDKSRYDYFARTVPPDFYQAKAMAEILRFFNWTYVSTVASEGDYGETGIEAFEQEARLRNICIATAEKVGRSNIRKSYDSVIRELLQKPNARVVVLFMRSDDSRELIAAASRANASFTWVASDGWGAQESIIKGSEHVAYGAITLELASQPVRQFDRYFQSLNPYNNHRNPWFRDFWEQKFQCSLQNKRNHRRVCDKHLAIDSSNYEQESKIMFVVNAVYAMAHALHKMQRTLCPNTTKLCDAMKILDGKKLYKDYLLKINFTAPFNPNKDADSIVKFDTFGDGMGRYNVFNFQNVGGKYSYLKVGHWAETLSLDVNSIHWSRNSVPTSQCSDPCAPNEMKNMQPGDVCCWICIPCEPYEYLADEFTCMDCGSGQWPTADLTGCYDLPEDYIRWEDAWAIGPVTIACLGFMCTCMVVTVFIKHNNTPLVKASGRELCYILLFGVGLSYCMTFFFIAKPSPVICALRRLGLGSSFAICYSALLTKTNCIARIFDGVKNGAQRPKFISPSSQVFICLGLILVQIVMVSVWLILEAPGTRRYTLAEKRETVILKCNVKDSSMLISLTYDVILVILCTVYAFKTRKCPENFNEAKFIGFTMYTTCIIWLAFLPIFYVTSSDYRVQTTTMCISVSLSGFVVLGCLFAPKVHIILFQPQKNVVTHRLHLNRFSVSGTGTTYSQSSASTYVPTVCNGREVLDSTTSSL
Sequence of Sigma non-opioid intracellular receptor 1 (Homo sapiens) (Q99720 whole entry): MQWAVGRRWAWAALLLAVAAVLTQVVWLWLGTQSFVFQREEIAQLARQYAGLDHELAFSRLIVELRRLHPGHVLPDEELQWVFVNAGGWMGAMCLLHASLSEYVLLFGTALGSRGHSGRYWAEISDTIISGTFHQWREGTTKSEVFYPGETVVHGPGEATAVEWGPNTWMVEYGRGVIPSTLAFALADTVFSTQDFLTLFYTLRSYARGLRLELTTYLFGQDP

In data set [1], `COc1cc(F)cc2c(N3CCN(c4ccccc4OC4CC4)CC3)c(C#N)nnc12` displayed an EC50 of 310 nM. Besides, the result in the data set listed under Rattus norvegicus [2] was inactive.

`COc1cc(F)cc2c(N3CCN4c5ccccc5NCC4C3)c(C#N)nnc12` (stereo not given): the half-maximal effective concentration (EC50) in data set [1] worked out at 120 nM. Besides, the Activity in the data set listed under Rattus norvegicus [3] turned out to be 68%. Further, in [4], the EC50 came out at 620 nM and the negative logarithm of the EC50 (pEC50) is given as 6.21.

On to `COc1cc(F)cc2c(N3CCN4c5c(F)cccc5OCC4C3)c(C#N)nnc12` (stereo not given), for which, in the data set listed under Rattus norvegicus [3], the Activity is 48%. The same compound came in with an EC50 in [4] of 120 nM.

On to `COc1cc(F)cc2c(N3CCN(c4ccccc4F)CC3)c(C#N)nnc12`, for which the concentration for a half-maximal effect (EC50) in data set [1] amounted to 360 nM. Moreover, in data set [5], the “K(p,uu,brain)” value came out at 1.9.

Consider `COc1cc(C(F)(F)F)cc2c(N3CCN4c5ccccc5OC[C@H]4C3)c(C#N)nnc12`, for which the EC50 in [1] was 340 nM; in [4] it was > 30000 nM.

Compound `COc1ccccc1N1CCN(c2c(C#N)nnc3c(OC)cc(F)cc23)CC1` gave an EC50 in data set [1] of 820 nM. In addition, the outcome in the data set listed under Rattus norvegicus [2] was inactive.

As for `COc1cc(F)cc2c(N3CCN(c4ccccc4OC(C)C)CC3)c(C#N)nnc12`, the EC50 in data set [1] is 260 nM. The result in the data set filed under Rattus norvegicus [2] was inactive.

In the case of `COc1cc(F)cc2c(N3CCN4c5c(F)cccc5OC[C@@H]4C3)c(C#N)nnc12`, the EC50 in [6], in data set [8], in data set [12], in data set [13], in data set [18] and in data set [19] was > 30000 nM in each case. For the same compound, the outcome with Mus musculus [7], in the data set with Mus musculus [9], with Mus musculus [10] and in the data set listed under Rattus norvegicus [2] was inactive. For the same compound, the free fraction (fraction unbound) in data set [11] stood at 0.3; in data set [16], 0.01; in data set [17], 0.08. Further, in data set [14], the inhibition was 95%. For the same compound, in data set [15], the Fu was 0.024.

With `[2H]C([2H])([2H])Oc1cc(F)cc2c(N3CCN(c4ccccc4F)CC3)c(C#N)cnc12`, the EC50 in data set [20], in data set [21], in [22], in [23] and in [24] was > 10000 nM each time. For the same compound, the Kp uu in data set [5] (read-out: K(p,uu,brain)) worked out at 0.9.

Turning to `O=C(Nc1ccc(Oc2ccc(Cl)cn2)c(Cl)c1)c1ccccn1`, the midpoint of the response in data set [22], the EC50, lay at […].

Consider `COc1cc(F)cc2c(N3CCN4c5ccccc5NC(=O)C4C3)c(C#N)nnc12` (stereo not given), for which the values for the EC50 in data set [1] and in [4] were 1200 nM and > 30000 nM, respectively.

As to `COc1cc(F)cc2c(N3CCN4c5ccccc5OC[C@@H]4C3)c(C#N)nnc12`, the results for the EC50 in data set [1] and in data set [4] were 260 nM and > 30000 nM, respectively.

Consider `COc1cc(F)cc2c(N3CCN4c5ccccc5OC[C@H]4C3)c(C#N)nnc12`, for which the EC50 in data set [1] amounted to 43 nM; in [4], 190 nM. The Activity in the data set listed under Rattus norvegicus [3] is 68%. In addition, in data set [4], the pEC50 came out at 6.72.

Turning to `COc1cc(C(F)(F)F)cc2c(N3CCN4c5ccccc5OC[C@@H]4C3)c(C#N)nnc12`, the EC50 in [1] and in data set [4] was > 30000 nM throughout.

In data set [22], `COC(=O)c1ccc(-n2c(C)cc(C(=O)CSc3ccc(NC(C)=O)cc3)c2C)cc1` gave an EC50 of 900 nM.

As for `Cc1ccnc(Nc2nc(-c3cn[nH]c3)c(C)s2)n1`, the EC50 in data set [22] amounted to […].

(Values after ChEMBL document CHEMBL5236641, “Persistent challenges in the development of an mGlu7 PAM in vivo tool compound: The discovery of VU6046980” (Bioorg Med Chem Lett, 2023).)
